Source: the supplement of paper PMC8612539
≈ marks a conversion by molar mass, not a printed value.

Tests used:
[1] = system: Pasteurella multocida; test: minimum inhibitory concentration (MIC)
Description: (§1)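 Broth microdilution MIC (Sensititre BOPO7F bovine plate, CLSI methods) of 19 antimicrobials against field isolates of P. multocida, M. haemolytica, H. somni (deep nasopharyngeal swabs) and E. coli, Enterococcus spp. (rectal swabs) from weaned dairy heifers. Incubation 16-24 h at 35 C. MIC is the lowest concentration preventing visible growth. Values with <= or > lie at the tested range limits. Trimethoprim-sulfamethoxazole is given as the trimethoprim component of a 1:19 mixture.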

[2] = system: Enterococcus spp.; test: minimum inhibitory concentration (MIC)
Description: as §1

CCN1CCN(c2cc3c(cc2F)c(=O)c(C(=O)O)cn3C2CC2)CC1 [Enrofloxacin]
minimum inhibitory concentration [µg/mL]
Conditions	[1]	[2]
isolate (source animal id): 2	–	0.25 (≈ 0.696 µM)
isolate (source animal id): 35	–	> 2
isolate (source animal id): 42	–	0.5 (≈ 1.39 µM)
isolate (source animal id): 44	–	0.5 (≈ 1.39 µM)
isolate (source animal id): 79	–	1 (≈ 2.78 µM)
isolate (source animal id): 88	–	0.25 (≈ 0.696 µM)
isolate (source animal id): 91	–	0.25 (≈ 0.696 µM)
isolate (source animal id): 92	–	1 (≈ 2.78 µM)
isolate (source animal id): 111	–	0.25 (≈ 0.696 µM)
isolate (source animal id): 122	–	1 (≈ 2.78 µM)
isolate (source animal id): 123	–	0.5 (≈ 1.39 µM)
isolate (source animal id): 133	–	1 (≈ 2.78 µM)
isolate (source animal id): 158	–	0.5 (≈ 1.39 µM)
isolate (source animal id): 168	–	0.5 (≈ 1.39 µM)
isolate (source animal id): 169	–	0.5 (≈ 1.39 µM)
isolate (source animal id): 171	–	0.5 (≈ 1.39 µM)
isolate (source animal id): 175	–	1 (≈ 2.78 µM)
isolate (source animal id): 177	–	2 (≈ 5.56 µM)
isolate (source animal id): 181	–	0.5 (≈ 1.39 µM)
isolate (source animal id): 182	–	0.5 (≈ 1.39 µM)
isolate (source animal id): 183	–	0.5 (≈ 1.39 µM)
isolate (source animal id): 187	–	0.5 (≈ 1.39 µM)
isolate (source animal id): 190	–	0.5 (≈ 1.39 µM)
isolate (source animal id): 194	–	0.5 (≈ 1.39 µM)
isolate (source animal id): 195	–	0.5 (≈ 1.39 µM)
isolate (source animal id): 197	–	0.5 (≈ 1.39 µM)
isolate (source animal id): 211	–	0.5 (≈ 1.39 µM)
isolate (source animal id): 214	–	1 (≈ 2.78 µM)
isolate (source animal id): 222	–	0.5 (≈ 1.39 µM)
isolate (source animal id): 223	–	0.25 (≈ 0.696 µM)
isolate (source animal id): 228	–	0.5 (≈ 1.39 µM)
isolate (source animal id): 230	–	0.5 (≈ 1.39 µM)
isolate (source animal id): 235	–	0.5 (≈ 1.39 µM)
isolate (source animal id): 236	–	2 (≈ 5.56 µM)
isolate (source animal id): 239	–	2 (≈ 5.56 µM)
isolate (source animal id): 241	–	0.5 (≈ 1.39 µM)
isolate (source animal id): 244	–	0.5 (≈ 1.39 µM)
isolate (source animal id): 246	–	0.5 (≈ 1.39 µM)
isolate (source animal id): 247	–	0.5 (≈ 1.39 µM)
isolate (source animal id): 250	–	0.25 (≈ 0.696 µM)
isolate (source animal id): 252	–	> 2
isolate (source animal id): 268	–	0.25 (≈ 0.696 µM)
isolate (source animal id): 269	≤ 0.12	–
isolate (source animal id): 270	2 (≈ 5.56 µM)	–
isolate (source animal id): 274	> 2	–
isolate (source animal id): 275	2 (≈ 5.56 µM)	–
isolate (source animal id): 276	> 2	–
isolate (source animal id): 277	≤ 0.12	–
isolate (source animal id): 278	2 (≈ 5.56 µM)	–
isolate (source animal id): 279	0.5 (≈ 1.39 µM)	–
isolate (source animal id): 280	0.5 (≈ 1.39 µM)	–
isolate (source animal id): 282	–	1 (≈ 2.78 µM)
isolate (source animal id): 284	2 (≈ 5.56 µM)	–
isolate (source animal id): 285	1 (≈ 2.78 µM)	1 (≈ 2.78 µM)
isolate (source animal id): 287	2 (≈ 5.56 µM)	–
isolate (source animal id): 289	–	0.5 (≈ 1.39 µM)
isolate (source animal id): 290	≤ 0.12	0.5 (≈ 1.39 µM)
isolate (source animal id): 294	≤ 0.12	–
isolate (source animal id): 295	≤ 0.12	–
isolate (source animal id): 296	1 (≈ 2.78 µM)	0.5 (≈ 1.39 µM)
isolate (source animal id): 298	–	0.5 (≈ 1.39 µM)
isolate (source animal id): 301	–	0.5 (≈ 1.39 µM)
isolate (source animal id): 307	≤ 0.12	–
isolate (source animal id): 310	≤ 0.12	1 (≈ 2.78 µM)
isolate (source animal id): 311	≤ 0.12	–
isolate (source animal id): 312	1 (≈ 2.78 µM)	–
isolate (source animal id): 313	1 (≈ 2.78 µM)	–
isolate (source animal id): 315	1 (≈ 2.78 µM)	–
isolate (source animal id): 316	1 (≈ 2.78 µM)	–
isolate (source animal id): 320	–	0.5 (≈ 1.39 µM)
isolate (source animal id): 331	–	0.5 (≈ 1.39 µM)
isolate (source animal id): 333	–	0.5 (≈ 1.39 µM)
isolate (source animal id): 341	–	> 2
